In article PMC12259270, “Sensory neuron–expressed FGF13 controls nociceptive signaling in diabetic neuropathy models” (The Journal of Clinical Investigation, 2025):
Residues, ends and D or L forms follow the SMILES beside them. *: point of attachment. Cbz = O=C(OCc1ccccc1)*; OtBu = CC(C)(C)O*

System: C57BL/6 mice
Test: Capsaicin-induced mechanical hypersensitivity (von Frey)
Assay type: in vivo, mouse
Parameters: LVF Mean / HVF Mean / MECHANICAL LVF / MECHANICAL HVF: unit not given here
From the text: FGF13 is a neuronal gene ubiquitously transcribed in DRG neuronal subtypes ([43]–[46]). To investigate neuronal subtype enrichment of the FGF13 transcript, we examined a gene panel including FGF13, SCN9A, and several marker genes in mouse single-cell transcriptomic data (Supplemental Figure 10) ([43]–[46]). […] Critically, putative silent nociceptors marked by somatostatin (SST), and the nicotinic cholinergic receptor α-3 subunit (CHRNA3) contribute to development of inflammatory mechanical hyperalgesia ([47]). […] We next determined if PW164 modulation of the FGF13/Nav1.7 complex could suppress nociceptive behaviors in WT mice. We tested whether intraplantar (i.pl.) injection (5 μL) of PW164 altered hind paw withdrawal in response to low or high intensity von Frey filament (LVF or HVF, respectively) mechanical stimulation (Figure 3A). […] Next, we evaluated PW164’s effect on mechanical and thermal hindpaw sensitivity in capsaicin-induced nociceptive hypersensitivity models. […] Next, we performed in vivo target validation in WT mice that received an intrathecal (i.t.) injection in L5 of AAV2-shFGF13 (6 μL, viral titers 1 × 10^12 vector genomes (vg)/mL); a control group received an equal number of AAV2-shCTRL particles (Figure 3C).
Experiments were performed on 6- to 12-week-old male C57BL/6 mice (The Jackson Laboratory, Bar Harbor, ME) housed in the AAALAC-accredited facility at the University of Texas Medical Branch. Mice were group-housed with up to 5 mice per cage on a 12-to-12-hour light–dark cycle and had access to water and food ad libitum. All protocols were approved by the Institutional Animal Care and Use Committee (IACUC) at the University of Texas Medical Branch and in accordance with the National Institutes of Health (NIH) guidelines.
PW164 and ZL192 were dissolved in DMSO and saline in a ratio of 1:10. 0.1% capsaicin (10% ethanol, 10% Tween-20 in saline; Sigma-Aldrich). All the compounds were injected at the center of the hind paw. The control group received a DMSO-saline mixture. […]
Bupivacaine was prepared from a 1:2 dilution with sterile 0.9% saline and locally injected in the center of the paw at 7 mg/ml.
AAV2 viral particles packaged by the University of North Carolina Gene Therapy Core Facility (viral titer ranging […]
Before intrathecal injections in the lumbar region, mice were maintained in an anesthetizing box with 2% isoflurane to induce unconsciousness. Six microliters of viral vector were gently injected into the CSF through a 30-gauge needle with a Hamilton syringe in the lumbar area between vertebrae L4 and L5 by gently gripping the iliac crest of the mouse and inserting the needle with an angle of 45°. The correct procedure was confirmed by the mouse’s tail reflexiv e flick.
Assessment of mechanical sensitivity
Mechanical sensitivity was assessed using von Frey filaments (VFF 0.1g and 1.0 g force) in mice that were either naïve or received intraplantar (i.p.) injection of capsaicin. VFFs were applied at the injection site (capsaicin or […]

[1] = Cap + PW164 0.07 mg/mL, Time (h) 0
[2] = Cap + PW164 0.07 mg/mL, Time (h) 0.5
[3] = Cap + PW164 0.07 mg/mL, Time (h) 1
[4] = Cap + PW164 0.07 mg/mL, Time (h) 1.5
[5] = Cap + PW164 0.07 mg/mL, Time (h) 2
[6] = Cap + PW164 0.07 mg/mL, Time (h) 3
[7] = Cap + PW164 0.21 mg/mL, Time (h) 0
[8] = Cap + PW164 0.21 mg/mL, Time (h) 0.5
[9] = Cap + PW164 0.21 mg/mL, Time (h) 1
[10] = Cap + PW164 0.21 mg/mL, Time (h) 1.5
[11] = Cap + PW164 0.21 mg/mL, Time (h) 2
[12] = Cap + PW164 0.21 mg/mL, Time (h) 3
[13] = Cap + PW164 0.7 mg/mL, Time (h) 0
[14] = Cap + PW164 0.7 mg/mL, Time (h) 0.5
[15] = Cap + PW164 0.7 mg/mL, Time (h) 1
[16] = Cap + PW164 0.7 mg/mL, Time (h) 1.5
[17] = Cap + PW164 0.7 mg/mL, Time (h) 2
[18] = Cap + PW164 0.7 mg/mL, Time (h) 3
[19] = Figure 3 D, AAV2-Control mice after Cap, 0.h min PW164
[20] = Figure 3 D, AAV2-Control mice after Cap, 1h PW164
[21] = Figure 3 D, AAV2-Control mice after Cap, 2h PW164
[22] = Figure 3 D, AAv2-shFGF13 mice after Cap, 0.h min PW164
[23] = Figure 3 D, AAv2-shFGF13 mice after Cap, 1h PW164
[24] = Figure 3 D, AAv2-shFGF13 mice after Cap, 2h PW164

COC(=O)[C@@H](NC(=O)[C@H](CCC(=O)OC(C)(C)C)NC(=O)[C@H](CC(C)C)NC(=O)[C@@H]1CCCN1C(=O)OCc1ccccc1)C(C)C [PW164] (Cbz-PLE(OtBu)V-OMe)
HVF Mean [1]: 50
LVF Mean [1]: 0
HVF Mean [2]: 100
LVF Mean [2]: 62.5
HVF Mean [3]: 97.5
LVF Mean [3]: 62.5
HVF Mean [4]: 85
LVF Mean [4]: 45
HVF Mean [5]: 87.5
LVF Mean [5]: 35
HVF Mean [6]: 83.75
LVF Mean [6]: 32.5
HVF Mean [7]: 51.6667
LVF Mean [7]: 0
HVF Mean [8]: 100
LVF Mean [8]: 60
HVF Mean [9]: 78.3333
LVF Mean [9]: 40
HVF Mean [10]: 83.3333
LVF Mean [10]: 35
HVF Mean [11]: 90
LVF Mean [11]: 30
HVF Mean [12]: 98.3333
LVF Mean [12]: 38.3333
HVF Mean [13]: 50
LVF Mean [13]: 0
HVF Mean [14]: 100
LVF Mean [14]: 61.6667
HVF Mean (Cap + PW164 0.7 mg/mL, Time (h) 0.75): 80
HVF Mean [15]: 63.3333
LVF Mean [15]: 20
HVF Mean [16]: 63.3333
LVF Mean [16]: 13.3333
HVF Mean [17]: 68.3333
LVF Mean [17]: 21.6667
HVF Mean [18]: 86.6667
LVF Mean [18]: 31.6667
HVF Mean [19]: 43.3333
LVF Mean [19]: 14.17
HVF Mean [20]: 50
LVF Mean [20]: 13.33
HVF Mean [21]: 45.8333
LVF Mean [21]: 9.17
HVF Mean [22]: 41.5152
LVF Mean [22]: 9.09
HVF Mean [23]: 37.9091
LVF Mean [23]: 9.39
HVF Mean [24]: 41.2121
LVF Mean [24]: 11.52
duration of analgesic effect (PW164 0.7 mg/mL i.pl., naive and AAV2-shCTRL mice after capsaicin): at least 2 hours
mechanical sensitivity in AAV2-shFGF13 mice after capsaicin (PW164 5 μL, 0.7mg/mL hind paw): did not further modify
capsaicin-induced mechanical sensitivity (PW164 at the capsaicin injection site, 30 minutes post-capsaicin): inhibited
lowest concentration with dose-dependent antihyperalgesic effect (i.pl., capsaicin model): 0.21 mg/mL
